In brackets after ≈: the same amount, converted by molar mass.
Experiments:
Influenza B virus = test: In vitro antiviral activity was evaluated in a plaque reduction assay against influenza B; type: functional, organism-based
Influenza A virus = test: In vitro antiviral activity was evaluated in a plaque reduction assay against influenza A; type: functional, organism-based

Compound CCCNC(=O)[C@@H]1OC(C(=O)O)=C[C@H](NC(=N)N)[C@H]1NC(C)=O has an IC50 (Influenza B virus) of 3800 ng/mL (≈ 11.6 µM) and an IC50 (Influenza A virus) of 280 ng/mL (≈ 0.855 µM).

Work on CCCN(C)C(=O)[C@@H]1OC(C(=O)O)=C[C@H](NC(=N)N)[C@H]1NC(C)=O yielded an IC50 (Influenza B virus) of 2200 ng/mL (≈ 6.44 µM) and an IC50 (Influenza A virus) of 11 ng/mL (≈ 0.0322 µM).

Compound CC(=O)N[C@H]1[C@H]([C@H](O)[C@H](O)CO)OC(C(=O)O)=C[C@@H]1N has an IC50 (Influenza B virus) of 20 ng/mL (≈ 0.0689 µM) and an IC50 (Influenza A virus) of 470 ng/mL (≈ 1.62 µM).

CCCNC(=O)[C@@H]1OC(C(=O)O)=C[C@H](N)[C@H]1NC(C)=O gave an IC50 (Influenza B virus) of 44000 ng/mL (≈ 154 µM).

CCCN(CCC)C(=O)[C@@H]1OC(C(=O)O)=C[C@H](NC(=N)N)[C@H]1NC(C)=O was tested, and the IC50 (Influenza A virus) was 0.1 ng/mL (≈ 0.000271 µM).

In the case of CCCN(C)C(=O)[C@@H]1OC(C(=O)O)=C[C@H](N)[C@H]1NC(C)=O, the IC50 (Influenza B virus) is reported as 16000 ng/mL (≈ 53.5 µM) and the IC50 (Influenza A virus) is reported as 320 ng/mL (≈ 1.07 µM).

From ChEMBL document CHEMBL1159157, “Novel inhibitors of influenza sialidase related to GG167 Synthesis of 4-amino and guanidino-4H-pyran-2-carboxylic acid-6-propylamides; selective inhibitors of influenza a virus sialidase” (Bioorg Med Chem Lett, 1996)
